Results published in ChEMBL document CHEMBL3885881, “DrugMatrix”.

Organism: Rattus norvegicus
Experiment: DrugMatrix - Regimen: Daily Repeat
Format: toxicity, organism-based, Sprague-Dawley
Set-up: regimen Daily Repeat, gender Male, age 6-8 weeks
Conditions: in vivo, vehicle 100 % SALINE; for ABSOLUTE BASOPHIL / ABSOLUTE EOSINOPHIL / ABSOLUTE LYMPHOCYTE / ABSOLUTE MONOCYTE / ABSOLUTE SEGMENTED NEUTROPHIL / BASOPHIL / EOSINOPHIL / ERYTHROCYTE COUNT / HEMOGLOBIN / LEUKOCYTE COUNT / LYMPHOCYTE / MEAN CORPUSCULAR HEMOGLOBIN / MEAN CORPUSCULAR HEMOGLOBIN CONCENTRATION / MEAN CORPUSCULAR VOLUME / NUCLEATED RED BLOOD CELLS / PLATELET COUNT: tissue Blood
[1] = iv, 0.004 mg/kg, 72 h, dose level Low, time 3 day
[2] = iv, 0.004 mg/kg, 72 h, tissue Plasma, dose level Low, time 3 day
[3] = iv, 0.004 mg/kg, 120 h, dose level Low, time 5 day
[4] = iv, 0.004 mg/kg, 120 h, tissue Plasma, dose level Low, time 5 day
[5] = sc, 0 mg/kg, 72 h, route mini-PUMP - SUBCUTANEOUS, dose level Control, time 3 day
[6] = sc, 0 mg/kg, 72 h, tissue Plasma, route mini-PUMP - SUBCUTANEOUS, dose level Control, time 3 day

CNC[C@H](O)c1ccc(O)c(O)c1 [EPINEPHRINE]
ABSOLUTE BASOPHIL [1]: 0 CELLS/uL
ABSOLUTE EOSINOPHIL [1]: 127.67 CELLS/uL
ABSOLUTE LYMPHOCYTE [1]: 11755 CELLS/uL
ABSOLUTE MONOCYTE [1]: 0 CELLS/uL
ABSOLUTE SEGMENTED NEUTROPHIL [1]: 884 CELLS/uL
BASOPHIL [1]: 0%
EOSINOPHIL [1]: 1%
ERYTHROCYTE COUNT [1]: 5.71 x10E6/uL
HEMOGLOBIN [1]: 14.07 G/DL
LEUKOCYTE COUNT [1]: 12.77 x10E3/uL
LYMPHOCYTE [1]: 92%
MEAN CORPUSCULAR HEMOGLOBIN [1]: 24.73 pg
MEAN CORPUSCULAR HEMOGLOBIN CONCENTRATION [1]: 37.8 G/DL
MEAN CORPUSCULAR VOLUME [1]: 65.37 fL
NUCLEATED RED BLOOD CELLS [1]: 0 /100WBC
PLATELET COUNT [1]: 1271 x10E3/uL
ALANINE AMINOTRANSFERASE [2]: 57.33 u/L
ALBUMIN [2]: 4.43 G/DL
ALKALINE PHOSPHATASE [2]: 425 u/L
ASPARTATE AMINOTRANSFERASE [2]: 75 u/L
BLOOD UREA NITROGEN [2]: 14 mg/dL
CARBON DIOXIDE [2]: 27 mmol/L
CHLORIDE [2]: 101.33 MEQ/L
CHOLESTEROL [2]: 80 mg/dL
CREATINE PHOSPHOKINASE [2]: 187.33 u/L
CREATININE [2]: 0.23 mg/dL
LACTATE DEHYDROGENASE [2]: 118.67 u/L
LIPASE [2]: 9 u/L
PHOSPHORUS [2]: 12.7 mg/dL
POTASSIUM [2]: 6.89 MEQ/L
SODIUM [2]: 145.07 MEQ/L
TOTAL PROTEIN [2]: 6.1 G/DL
ABSOLUTE BASOPHIL [3]: 0 CELLS/uL
ABSOLUTE EOSINOPHIL [3]: 147.67 CELLS/uL
ABSOLUTE LYMPHOCYTE [3]: 10984 CELLS/uL
ABSOLUTE MONOCYTE [3]: 0 CELLS/uL
ABSOLUTE SEGMENTED NEUTROPHIL [3]: 1368.33 CELLS/uL
BASOPHIL [3]: 0%
EOSINOPHIL [3]: 1%
ERYTHROCYTE COUNT [3]: 5.59 x10E6/uL
HEMOGLOBIN [3]: 13.2 G/DL
LEUKOCYTE COUNT [3]: 12.5 x10E3/uL
LYMPHOCYTE [3]: 87.33%
MEAN CORPUSCULAR HEMOGLOBIN [3]: 23.63 pg
MEAN CORPUSCULAR HEMOGLOBIN CONCENTRATION [3]: 37.23 G/DL
MEAN CORPUSCULAR VOLUME [3]: 63.47 fL
NUCLEATED RED BLOOD CELLS [3]: 0 /100WBC
PLATELET COUNT [3]: 1309.33 x10E3/uL
ALANINE AMINOTRANSFERASE [4]: 48 u/L
ALBUMIN [4]: 4.47 G/DL
ALKALINE PHOSPHATASE [4]: 367.33 u/L
ASPARTATE AMINOTRANSFERASE [4]: 79 u/L
BLOOD UREA NITROGEN [4]: 16 mg/dL
CARBON DIOXIDE [4]: 24 mmol/L
CHLORIDE [4]: 103 MEQ/L
CHOLESTEROL [4]: 67.33 mg/dL
CREATINE PHOSPHOKINASE [4]: 204.67 u/L
CREATININE [4]: 0.23 mg/dL
LACTATE DEHYDROGENASE [4]: 102.67 u/L
LIPASE [4]: 8 u/L
PHOSPHORUS [4]: 13.37 mg/dL
POTASSIUM [4]: 6.61 MEQ/L
SODIUM [4]: 145.67 MEQ/L
TOTAL PROTEIN [4]: 6.3 G/DL
ABSOLUTE BASOPHIL [5]: 0 CELLS/uL
ABSOLUTE EOSINOPHIL [5]: 77.17 CELLS/uL
ABSOLUTE LYMPHOCYTE [5]: 14293.83 CELLS/uL
ABSOLUTE MONOCYTE [5]: 354 CELLS/uL
ABSOLUTE SEGMENTED NEUTROPHIL [5]: 1658.33 CELLS/uL
BASOPHIL [5]: 0%
EOSINOPHIL [5]: 0.5%
ERYTHROCYTE COUNT [5]: 6.27 x10E6/uL
HEMOGLOBIN [5]: 13.4 G/DL
LEUKOCYTE COUNT [5]: 16.38 x10E3/uL
LYMPHOCYTE [5]: 87.17%
MEAN CORPUSCULAR HEMOGLOBIN [5]: 21.42 pg
MEAN CORPUSCULAR HEMOGLOBIN CONCENTRATION [5]: 36.27 G/DL
MEAN CORPUSCULAR VOLUME [5]: 59.03 fL
NUCLEATED RED BLOOD CELLS [5]: 0 /100WBC
PLATELET COUNT [5]: 904.67 x10E3/uL
ALANINE AMINOTRANSFERASE [6]: 48.33 u/L
ALBUMIN [6]: 3.82 G/DL
ALKALINE PHOSPHATASE [6]: 282.33 u/L
ASPARTATE AMINOTRANSFERASE [6]: 86.83 u/L
BLOOD UREA NITROGEN [6]: 20.17 mg/dL
CARBON DIOXIDE [6]: 34.67 mmol/L
CHLORIDE [6]: 102 MEQ/L
CHOLESTEROL [6]: 71.5 mg/dL
CREATININE [6]: 0.2 mg/dL
LACTATE DEHYDROGENASE [6]: 159 u/L
LIPASE [6]: 9 u/L
PHOSPHORUS [6]: 10.12 mg/dL
POTASSIUM [6]: 5.92 MEQ/L
SODIUM [6]: 147.8 MEQ/L
TOTAL BILIRUBIN [6]: 0.2 mg/dL
